Results from patent publication US7442791B2, “Aminoalkylamide substituted cyclohexyl derivatives” (Hoffmann-La Roche Inc., priority 2003, dated 2008).
Where two headings read alike, the source gives them in different places.

Columns and labels:
[1] = target: T1, Human Liver Microsomal 2,3-oxidosqualene-lanosterol Cyclase (OSC) (Homo sapiens, UniProt P48449); assay: Inhibition of human liver microsomal 2,3-oxidosqualene-lanosterol cyclase (OSC); type: biochemical; settings: read-out: percentage OSC inhibition against controls
T1 construct: Liver microsomes from a healthy volunteer were prepared in sodium phosphate buffer (pH 7.4); from tissue; host or cells: human liver microsomes (healthy volunteer)
T1 sequence (P48449 1-732): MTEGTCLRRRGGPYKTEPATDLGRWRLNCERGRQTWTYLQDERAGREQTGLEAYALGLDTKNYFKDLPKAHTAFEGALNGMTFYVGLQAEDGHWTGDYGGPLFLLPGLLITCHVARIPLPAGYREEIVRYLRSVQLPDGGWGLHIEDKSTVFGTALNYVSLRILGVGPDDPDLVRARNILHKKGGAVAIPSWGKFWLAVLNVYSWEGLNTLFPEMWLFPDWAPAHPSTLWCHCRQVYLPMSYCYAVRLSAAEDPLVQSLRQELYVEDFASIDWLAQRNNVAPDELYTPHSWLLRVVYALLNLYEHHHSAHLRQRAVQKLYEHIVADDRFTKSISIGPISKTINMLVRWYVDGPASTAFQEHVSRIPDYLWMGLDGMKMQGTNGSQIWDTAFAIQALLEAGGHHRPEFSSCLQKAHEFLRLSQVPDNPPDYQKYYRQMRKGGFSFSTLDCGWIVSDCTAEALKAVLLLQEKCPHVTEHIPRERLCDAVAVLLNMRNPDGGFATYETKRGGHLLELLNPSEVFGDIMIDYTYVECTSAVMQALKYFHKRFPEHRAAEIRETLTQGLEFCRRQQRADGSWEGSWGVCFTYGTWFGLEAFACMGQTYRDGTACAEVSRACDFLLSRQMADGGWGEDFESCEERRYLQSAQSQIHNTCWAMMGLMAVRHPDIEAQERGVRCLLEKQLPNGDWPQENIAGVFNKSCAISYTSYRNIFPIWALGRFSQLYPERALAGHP
Description: Inhibition of Human Liver Microsomal 2,3-oxidosqualene-lanosterol Cyclase (OSC)
Liver microsomes from a healthy volunteer were prepared in sodium phosphate buffer (pH 7.4). The OSC activity was measured in the same buffer, which also contained 1 mM EDTA and 1 mM dithiothreitol. The microsomes were diluted to 0.8 mg/ml protein in cold phosphate buffer. Dry [^14C]R,S-monooxidosqualene (MOS, 12.8 mCi/mmol) was diluted to 20 nCi/μl with ethanol and mixed with phosphate buffer-1% BSA (bovine serum albumin). A stock solution of 1 mM test substance in DMSO was diluted to the desired concentration with phosphate buffer-1% BSA. 40 μl of microsomes were mixed with 20 μl of the solution of the test substance and the reaction was subsequently started with 20 μl of the [^14C]R,S-MOS solution. The final conditions were 0.4 mg/ml of microsomal proteins and […] of [^14C]R,S-MOS in phosphate buffer, pH 7.4, containing 0.5% albumin, DMSO<0.1% and ethanol<2%, in a total volume of 80 μl.
After 1 hour at 37° C. the reaction was stopped by the addition of 0.6 ml of 10% KOH-methanol, 0.7ml of water and 0.1 ml of hexane:ether (1:1, v/v) which contained 25 μg of non-radioactive MOS and 25 μg of lanosterol as carriers. After shaking, 1 ml of hexane:ether (1:1, v/v) was added to each test tube, these were again shaken and then centrifuged. The upper phase was transferred into a glass test tube, the lower phase was again extracted with hexane:ether and combined with the first extract. The entire extract was evaporated to dryness with nitrogen, the residue was suspended in 50 μl of hexane:ether and applied to a silica gel plate. Chromatographic separation was effected in hexane:ether (1:1, v/v) as the eluent. The Rf values for the MOS substrate and the lanosterol product were 0.91 and, respectively, 0.54. After drying, radioactive MOS and lanosterol were observed on the silica gel plate. The ratio of MOS to lanosterol was determined from the radioactive bands in order to determine the yield of the reaction and OSC inhibition.
The test was carried out on the one hand with a constant test substance concentration of 100 nM and the percentage OSC inhibition against controls was calculated.
In addition, the test was carried out with different test substance concentrations and subsequently the IC50 value was calculated, i.e. the concentration required to reduce the conversion of MOS into lanosterol to 50% of the control value.

[2] = constant test substance concentration of 100 nM, human liver microsomes, [14C]R,S-MOS, 1 hour at 37° C.

| inhibition at 0.1 µM [1, 2] [%] | SMILES | other results |
| --- | --- | --- |
| 65 | CCN(CCO)CCN(C)C(=O)[C@H]1CC[C@H](CCN(C)c2ncc(Br)cn2)CC1 [Example 15.4, trans-4-{2-[(5-bromo-pyrimidin-2-yl)-methyl-amino]-ethyl}-cyclohexanecarboxylic acid {2-[ethyl-(2-hydroxy-ethyl)-amino]-ethyl}-methyl-amide] |  |
|  | CN(C)CCN(C)C(=O)[C@H]1CC[C@H](CN(C)C(=O)Oc2ccc(Cl)cc2)CC1 [Example 5.4, trans-{4-[(2-dimethylamino-ethyl)-methyl-carbamoyl]-cyclohexylmethyl}-methyl-carbamic acid 4-chloro-phenyl ester] | inhibition at 0.1 µM [1]: 51% |
| 56 | CN(C)CCN(C)C(=O)CC[C@H]1CC[C@H](CN(C)S(=O)(=O)c2ccc(C(F)(F)F)cc2)CC1 [Example 22.6, trans-N-(2-dimethylamino-ethyl)-N-methyl-3-(4-{[methyl-(4-trifluoromethyl-benzenesulfonyl)-amino]-methyl}-cyclohexyl)-propionamide] |  |
|  | CN(C)CCN(C)C(=O)[C@H]1CC[C@H](N(C)S(=O)(=O)c2ccc(C(F)(F)F)cc2)CC1 [Example 4.4, trans-4-[methyl-(4-trifluoromethyl-benzenesulfonyl)-amino]-cyclohexanecarboxylic acid (2-dimethylamino-ethyl)-methyl-amide] | melting point: 83 °C |
| 61 | CN(C)CCN(C)C(=O)CCO[C@H]1CC[C@H](N(C)S(=O)(=O)c2ccc(C(F)(F)F)cc2)CC1 [Example 1.6, trans-N-(2-dimethylamino-ethyl)-N-methyl-3-{4-[methyl-(4-trifluoromethyl-benzenesulfonyl)-amino]-cyclohexyloxy}-propionamide] |  |
